Laboratory results published in patent US20200268864A1, “CANCER VACCINE COMPOSITIONS AND METHODS FOR USING SAME TO TREAT CANCER” (Dana-Farber Cancer Institute, Inc., priority 2017, published 2020).

Tests used:
[1] = tested on: STING pathway in PPM tumors; assay: STING pathway activation in PPM tumors; details: mouse, in vivo
Protocol: Tumors were first mechanically disrupted by chopping, then chemically digested in collagenase buffer (8 mL DMEM, 0.1 mL 1M HEPES, 0.5 mL FBS, 0.2 mL Pen/Strep, 1 m, 10× collagenase/hyaluronidase (Stemcell Technologies), 0.2 mL of 1 mg/mL DNase I (Stemcell Technologies) at 37° C. for 45 min. Single-cell suspensions of spleen and lymph nodes were obtained by mashed through a 70 um strainer using the plunger of a 3 mL or 5 mL syringe. Single cells suspensions were treated with red blood lysis buffer (4 mL NH4Cl+1 mL PBS with 2% calf serum) and washed with FACS buffer. Single cells suspensions were incubated with LIVE/DEAD Fixable Aqua Dead Cell Stain (Life Technologies, Cat # L34965) for 30 min and then blocked with anti-CD16/32 (BioLegend, clone 93) for 20 min on ice. Samples were then incubated with appropriate antibodies for 30 min. on ice. The Foxp3 staining buffer set (eBioscience, Cat #00-5523-00) was applied for intracellular markers staining. For the intracellular cytokine analysis, cells were stimulated with Leukocyte Activation Cocktail (BD Biosciences, Cat #550583) at 37° C. for 5 hours prior to FACS staining. […] Flow cytometry was performed on an LSR II (BD Biosciences) or LSRFortessa™ HTS (BD Biosciences) at the DFCI flow cytometry core facility, and all the data were analyzed using FlowJo software. […]

[2] = tested on: PPM cells; assay: Cytosolic dsDNA (PicoGreen) and micronuclei staining, PPM cells; type: cell-based, mouse; details: 2.5 μM, 24 h
Protocol: PBM and PPM cells were cultured on chambered cell culture slides (BD Falcon). Cells were treated with 2.5 μM olaparib or vehicle control (DMSO) for 24 hours. Following the treatment, cells were incubated with culture media containing PicoGreen double-stranded DNA stain (200-fold dilution, Life Technologies). After one-hour incubation, cells were fixed with 4% paraformaldehyde in PBS (Santa Cruz Biotechnology) for 10 minutes. Cells were then washed twice with PBS and stained with 300 nM DAPI (Thermo Fisher Scientific) for 10 minutes. Coverslips were mounted using ProLong Diamond Antifade Mountant (Thermo Fisher Scientific). Staining was imaged using a Leica SP5X laser scanning confocal microscope.

`O=C(c1cc(Cc2n[nH]c(=O)c3ccccc23)ccc1F)N1CCN(C(=O)C2CC2)CC1` [olaparib, Olaparib] was tested, and the “hallmarks of STING pathway activation in PPM tumors” value [1] was “not observed” and the “cytosolic dsDNAs and micronuclei” value [2] was “not”.
